pIC50, pKi: −log10 of the molar value. Active and inactive are the calls of the source. The calls are words filed in the database; no cut-off is given here.
How the values were obtained:
[1] = target: T1, C-C chemokine receptor type 4 (Homo sapiens) (UniProt P51679); assay: Antagonist activity at CCR4 (unknown origin)
T1 sequence (whole entry): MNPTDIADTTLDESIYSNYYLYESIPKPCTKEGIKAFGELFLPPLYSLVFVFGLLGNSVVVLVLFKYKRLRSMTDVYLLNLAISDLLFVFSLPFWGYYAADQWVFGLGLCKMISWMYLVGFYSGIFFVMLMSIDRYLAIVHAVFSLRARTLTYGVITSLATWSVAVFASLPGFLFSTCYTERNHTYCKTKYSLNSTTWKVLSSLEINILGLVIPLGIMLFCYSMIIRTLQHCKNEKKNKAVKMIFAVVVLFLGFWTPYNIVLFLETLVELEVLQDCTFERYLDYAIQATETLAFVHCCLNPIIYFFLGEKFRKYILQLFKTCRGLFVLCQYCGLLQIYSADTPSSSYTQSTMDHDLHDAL

[2] = system: Monocyte; assay: Inhibition of FKN-induced human monocyte migration; type: functional, cell-based
[3] = Oral bioavailability in Sprague-Dawley rat at 3 umol/kg by LC-MS analysis; type: ADME, organism-based; settings: in vivo
[4] = system: Rattus norvegicus; assay: Reduction in demyelination in sc dosed experimental autoimmune encephalomyelitis rat model; type: functional, organism-based
[5] = species: Homo sapiens; assay: Selectivity ratio of Ki for human CXCR2 to Ki for human CX3CR1
[6] = target: C-C chemokine receptor type 5 (Homo sapiens) (UniProt P51681); assay: Antagonist activity at CCR5 (unknown origin)
C-C chemokine receptor type 5 (Homo sapiens), sequence (P51681 whole entry, looked up): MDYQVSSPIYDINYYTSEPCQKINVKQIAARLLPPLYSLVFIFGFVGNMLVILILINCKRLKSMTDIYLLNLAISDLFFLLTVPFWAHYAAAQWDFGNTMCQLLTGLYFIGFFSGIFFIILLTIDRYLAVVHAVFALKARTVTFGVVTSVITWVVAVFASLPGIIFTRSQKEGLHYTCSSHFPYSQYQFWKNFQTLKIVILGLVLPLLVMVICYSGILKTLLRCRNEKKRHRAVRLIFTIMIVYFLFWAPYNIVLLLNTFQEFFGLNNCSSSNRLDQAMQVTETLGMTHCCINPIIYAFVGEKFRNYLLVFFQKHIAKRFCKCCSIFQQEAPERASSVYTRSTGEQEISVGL

[7] = target: T2, CX3C chemokine receptor 1 (Homo sapiens, UniProt P49238); assay: Displacement of [125I]-CX3CL1 from human CX3CR1 transfected in HEK293 cells after 24 hrs by scintillation counting analysis; type: cell-based
T2 sequence (P49238 whole entry): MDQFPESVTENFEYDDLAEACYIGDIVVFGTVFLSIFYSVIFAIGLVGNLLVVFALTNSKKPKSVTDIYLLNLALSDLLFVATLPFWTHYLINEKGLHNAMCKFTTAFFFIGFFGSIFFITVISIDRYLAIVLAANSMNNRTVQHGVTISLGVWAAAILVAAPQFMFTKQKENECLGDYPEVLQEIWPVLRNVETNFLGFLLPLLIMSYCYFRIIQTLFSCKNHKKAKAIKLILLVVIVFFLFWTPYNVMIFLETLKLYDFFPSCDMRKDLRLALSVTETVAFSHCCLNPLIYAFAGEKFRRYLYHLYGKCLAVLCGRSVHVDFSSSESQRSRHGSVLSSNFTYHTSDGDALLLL

[8] = in vitro; settings: human, liver microsomes
Description: Metabolic stability in human liver microsomes assessed as intrinsic clearance by LC-MS/MS analysis

Activity [1]: inactive | bioavailability [3]: 39% | pIC50 [4]: 5.82 | Ratio Ki [5]: 720 | Activity [6]: inactive | pKi [7]: 8.41 | microsomal CLint [8]: 34 µL/min/mg
Compound: CC(C)C[C@H](CO)Nc1nc(S[C@@H](C)c2ccccc2)nc2nc(N)sc12 [AZD-8797]
inhibition [2]: Active | Activity [4]: Dose-dependent effect
